Where two headings read alike, the source gives them in different places.
Tests used:
FabF [1] = target: T1, FabF (Staphylococcus aureus, UniProt Q8NXE1); assay: […]-malonyl-CoA FASII elongation assay; format: biochemical
T1 sequence (Q8NXE1 1-414): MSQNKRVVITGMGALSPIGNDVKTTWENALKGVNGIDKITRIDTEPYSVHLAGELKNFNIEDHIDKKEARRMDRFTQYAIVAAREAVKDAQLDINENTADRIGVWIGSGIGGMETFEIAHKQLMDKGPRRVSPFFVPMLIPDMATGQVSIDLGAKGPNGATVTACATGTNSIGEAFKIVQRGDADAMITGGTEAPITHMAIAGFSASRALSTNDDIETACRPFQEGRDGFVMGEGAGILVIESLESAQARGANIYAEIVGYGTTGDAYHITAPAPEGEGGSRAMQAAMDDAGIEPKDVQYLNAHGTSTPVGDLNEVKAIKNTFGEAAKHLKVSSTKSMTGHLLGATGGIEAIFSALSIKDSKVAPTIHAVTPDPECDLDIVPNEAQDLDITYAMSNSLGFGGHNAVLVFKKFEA

FabF [2] = target: T1, FabF; format: biochemical

Row | Substance | IC50 (FabF [1]) [µg/mL] | IC50 (FabF [2]) [µg/mL]
1 | fasamycin B [compound 2] | 80 | 
2 | fasamycin A [compound 1] |  | 50

Reference: publication PMC3335777 (Journal of the American Chemical Society, 2012)
